Laboratory results taken from PubChem BioAssay (NCI).
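How tested: cells in 96-well plates exposed to compound for 48 hours at five concentrations. GI50: concentration for 50% inhibition of growth. TGI marks complete inhibition of growth.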 Where a SMILES comes first, the peptide text is derived from it. The star is where a group is joined. Boc = CC(C)(C)OC(=O)*

Columns and labels:
Test in all cases: growth of human tumour cells (NCI), 48 h
K-562 leukemia = system: K-562 leukemia
SNB-19 CNS = system: SNB-19 CNS
TK-10 renal = system: TK-10 renal
UO-31 renal = system: UO-31 renal
HCT-15 colon = system: HCT-15 colon
U251 CNS = system: U251 CNS
HCT-116 colon = system: HCT-116 colon
M14 melanoma = system: M14 melanoma
EKVX NSCLC = system: EKVX NSCLC
SK-OV-3 ovarian = system: SK-OV-3 ovarian

SMILES | TGI (K-562 leukemia) [µM] | TGI (SNB-19 CNS) [µM] | TGI (TK-10 renal) [µM] | TGI (UO-31 renal) [µM] | TGI (HCT-15 colon) [µM] | TGI (U251 CNS) [µM] | TGI (HCT-116 colon) [µM] | TGI (M14 melanoma) [µM] | TGI (EKVX NSCLC) [µM] | TGI (SK-OV-3 ovarian) [µM] | GI50 (K-562 leukemia) [µM] | GI50 (SNB-19 CNS) [µM] | GI50 (EKVX NSCLC) [µM] | GI50 (HCT-15 colon) [µM] | GI50 (U251 CNS) [µM] | GI50 (SK-OV-3 ovarian) [µM] | GI50 (HCT-116 colon) [µM]
COC(=O)C(Cc1c[nH]c2ccccc12)NC(=O)C(Cc1c[nH]c2ccccc12)NC(=O)C(Cc1c[nH]c2ccccc12)NC(=O)C(Cc1c[nH]c2ccccc12)NC(=O)C(Cc1c[nH]c2ccccc12)NC(=O)C(Cc1c[nH]c2ccccc12)NC(=O)OC(C)(C)C (centres undefined) (Boc-WWWWWW-OMe; configuration not given here) | > 100 | > 100 | > 100 | > 100 | > 100 | > 100 | > 100 |  |  |  |  |  |  |  |  |  | 
O=C(/C=C/c1ccc(O)c(O)c1)OCCCc1ccccc1 | 58.9 | 33.6 |  | 14.8 | 26.4 | 23.4 | 22.4 | 22.6 | 63.8 | 58.9 |  |  |  |  |  |  | 
N[C@H](C(=O)O)[C@H]1ON=C(Cl)[C@@H]1O | > 550 | > 550 |  | 441 | > 550 | > 550 | > 550 | > 66.9 | > 550 | > 231 | 4.15 | 40.7 | 11.2 | 3.95 | 11.4 | 4.86 | 4.4
Cc1ccc(N2Cc3c(ccc4ccccc34)OP2(=O)Oc2ccc(Cl)c(C)c2)cc1 (centres undefined) | > 100 | > 100 |  | > 100 | > 100 | > 100 | > 100 |  | > 100 | > 100 |  |  |  |  |  |  | 
Nc1nc(SCc2ccc([N+](=O)[O-])cc2)nc2c1ncn2C1OC(COP(=O)(O)O)C(O)C1O (centres undefined) | > 100 | > 100 | > 100 |  | > 100 | > 100 | > 100 | > 100 | > 100 | > 100 |  |  |  |  |  |  | 
O=C(O)c1cc2ccccc2c(N=Nc2ccc(S(=O)(=O)Nc3nccs3)cc2)c1O | > 100 |  | > 100 | > 100 | > 100 | > 100 | > 100 | > 100 | > 100 | > 100 |  |  |  |  |  |  | 
COc1cc2c(cc1OC)C(C(CO)CO)N(CC(O)CCl)CC2 (centres undefined) | > 100 | > 100 | > 100 | > 100 | > 100 | > 100 |  | > 100 | > 100 | > 100 |  |  |  |  |  |  | 
COC(=O)/C(=C\Nc1cccc(C)n1)S(=O)(=O)c1ccc(C)cc1 | 75.5 | > 100 | > 100 | > 100 | > 100 | > 100 | > 100 | > 100 |  | > 100 |  |  |  |  |  |  | 
CCOC(=O)c1cc(-c2cc(OC)c(OC)c([N+](=O)[O-])c2)c([N+](=O)[O-])n1C | > 10 | > 10 | > 10 | > 10 | > 10 | > 10 | > 10 | > 10 | > 10 |  |  |  |  |  |  |  | 
CCC(CON(C)c1ccccc1)(SC)SC |  | > 100 | > 100 | > 100 | > 100 | > 100 | > 100 | > 100 | > 100 | > 100 |  |  |  |  |  |  | 
